From article PMC2990756, “Quantitative High-Throughput Screening Identifies 8-Hydroxyquinolines as Cell-Active Histone Demethylase Inhibitors” (PLoS ONE, 2010)

Molecular target: T1, JMJD2E (Homo sapiens, UniProt B2RXH2)
T1 sequence (B2RXH2 1-337): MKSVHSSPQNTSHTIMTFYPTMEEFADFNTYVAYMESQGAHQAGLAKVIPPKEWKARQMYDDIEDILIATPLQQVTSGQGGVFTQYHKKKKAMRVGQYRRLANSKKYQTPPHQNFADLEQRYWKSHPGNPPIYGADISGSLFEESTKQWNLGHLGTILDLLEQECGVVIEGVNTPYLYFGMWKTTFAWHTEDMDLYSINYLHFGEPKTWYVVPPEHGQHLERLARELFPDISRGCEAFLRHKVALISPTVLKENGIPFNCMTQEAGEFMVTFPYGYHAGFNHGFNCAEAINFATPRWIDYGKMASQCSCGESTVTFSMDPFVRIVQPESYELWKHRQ
Test: JMJD2E FDH-coupled assay under low and high iron conditions (iron chelation profile)
Assay type: biochemical
Design: The catalytic domain of human JMJD2E (residues 1–337); His6 (N); made in house; host or cells: E. coli
Settings: 25 and 2.5 µM Fe(II); call rule not given here

Row | SMILES | ratio of IC50 values under high iron to low iron
1 | O=C(O)CN(CCN(CC(=O)O)CC(=O)O)CC(=O)O [EDTA, reference compound] | 5.9

Same assay, conditions: Figure 2; high iron 25 µM Fe(II); read-out: IC50 values in μM, High Fe

Row | SMILES | IC50 [µM]
2 | Oc1ccc(NCc2ccccc2OCc2ccccc2F)cc1 [SID 17385881] | 14.1

Same assay, conditions: Table S1; high iron

Row | SMILES | qHTS Data: jmjd2e fas20um CurveClass
3 | Oc1cc(O)c2c(c1)OC(c1cc(O)c(O)c(O)c1)C(O)C2 (centres unmarked) [compound 26749553] | Poor quality curve

Same assay, conditions: Table S1; high iron, head says 20 µM FAS; unit not in table, from Figure 2; read-out: qHTS Data: jmjd2e fas20um IC50

Row | SMILES | IC50 [µM]
4 | Oc1cc(O)c2c(c1)OC(c1cc(O)c(O)c(O)c1)C(O)C2 (centres unmarked) [compound 26749553] | 3.16

Same assay, conditions: Table S1; low iron 2.5 µM FAS; unit not in table, from Figure 2; read-out: qHTS Data: jmjd2e fas2.5um IC50

Row | SMILES | IC50 [µM]
5 | Oc1cc(O)c2c(c1)OC(c1cc(O)c(O)c(O)c1)C(O)C2 (centres unmarked) [compound 26749553] | 2.82

Molecular target: T2, JMJD2E (KDM4E) (Homo sapiens, UniProt B2RXH2)
T2 construct: The catalytic domain of human JMJD2E (residues 1–337); His6 (N); made in house; host or cells: E. coli
T2 sequence (B2RXH2 1-337): T1 sequence (B2RXH2 1-337)
Test: qHTS fluorescence FDH-coupled JMJD2E demethylase assay
Assay type: biochemical
Settings: FDH coupled assay; read-out: IC50 against JMJD2E
Text: The oxidation of formaldehyde is coupled to the reduction of NAD^+ to NADH, which is monitored by fluorescence spectroscopy. […] To this end, initial screening hits were filtered by a combination of cheminformatics (to exclude low-confidence inhibitors and autofluorescent false positives), counterscreening against the coupled-assay component formaldehyde dehydrogenase (FDH), and orthogonal direct detection of inhibition of demethylation by mass spectrometry ( Figure 1 ).
Reactions were initiated with 1 µL addition of peptide substrate solution containing final concentrations of 10 µM FAS, 50 µM 2OG, 0.25 U/mL FDH, 0.25 mM NAD^+, and 50 µM peptide substrate (ARK(me3)STGGK). A ViewLux imager (PerkinElmer, Waltham, MA) was used to measure NADH fluorescence (λex 340 nm, λem 450 nm) immediately after substrate addition and following 30 min incubation at room temperature. To record any systematic drifts in assay behavior (signal window and noise), assay plates containing no library compounds but only DMSO as a vehicle control were tested periodically (every ∼60 plates) throughout the screen.
Data were normalized to the basal response (0% activity) in the absence of enzyme and the maximal response (100% activity) in the absence of compound. Using the Hill equation, dose-response curves and IC50 values were automatically generated for each compound tested with software developed internally (www.ncgc.nih.gov/pub/openhts/curvefit/). […] The initial well fluorescence (first kinetic read) associated with each sample was stored in a database and used in the cheminformatics analysis to identify autofluorescent compounds interfering with the assay signal.

Row | SMILES | IC50 [µM]
6 | O=C(O)c1ccnc2c(O)cccc12 [SID 85736397, 4-carboxy-8-hydroxyquinoline] | 2

Same assay, conditions: Figure 2; 100 nM JMJD2E, 10 µM FAS; read-out: IC50 values in μM, qHTS

Row | SMILES | IC50 [µM]
7 | Oc1ccc(NCc2ccccc2OCc2ccccc2F)cc1 [SID 17385881] | 5
8 | COc1ccccc1NC(=O)c1sc2ncn(Cc3ccccc3C)c(=O)c2c1C [SID 17408386] | 4.5

Same assay, conditions: Figure 3; substituted 8-hydroxyquinolines against JMJD2E; read-out: IC50 /μM (qHTS IC50, FDH-coupled assay)

Row | SMILES | IC50 [µM]
9 | O=C(O)c1ccnc2c(O)cccc12 [SID 85736397, 4-carboxy-8-hydroxyquinoline] | 2.0
10 | Oc1ccc(COCc2ccccc2)c2cccnc12 [compound 848472] | 36
11 | OCc1ccnc2c(O)cccc12 [compound 857270] | 8.9
12 | Oc1cccc2ccc(/C=C/c3cccs3)nc12 [compound 14734630] | > 39
13 | Oc1cccc2ccc(/C=C/c3c(F)cccc3Cl)nc12 [compound 24793399] | 28
14 | Oc1ccc(CNc2cccc(C(F)(F)F)c2)c2cccnc12 [compound 50122416] | 7.9
15 | Oc1c(CN2CCCC2)cc(COCc2ccccc2)c2cccnc12 [compound 85736312] | 5

Same assay, conditions: Table S1; unit not in table, from Figure 2; read-out: qHTS Data: jmjd2e IC50

Row | SMILES | IC50 [µM]
16 | Cc1ccc2ccc(C(Nc3ccccn3)c3ccccc3)c(O)c2n1 (centres unmarked) [compound 14737227] | 39.8
17 | Oc1cc(O)c2c(c1)OC(c1cc(O)c(O)c(O)c1)C(O)C2 (centres unmarked) [compound 26749553] | 1.41

Molecular target: T3, formaldehyde dehydrogenase (FDH) (Pseudomonas putida, UniProt P46154)
T3 construct: purchased Sigma-Aldrich
Test: FDH coupling enzyme counterscreen
Assay type: biochemical
Settings: Figure 2; 0.025 U/mL FDH, 10 µM formaldehyde; read-out: IC50 values in μM, FDH
Text: Dimethylsulfoxide certified ACS grade (DMSO) was from Fisher, Inc. HEPES buffer was obtained from Gibco. […] Black solid-bottom 1,536-well assay plates were from Greiner Bio-One (Monroe, NC).

T3 sequence (P46154 whole entry): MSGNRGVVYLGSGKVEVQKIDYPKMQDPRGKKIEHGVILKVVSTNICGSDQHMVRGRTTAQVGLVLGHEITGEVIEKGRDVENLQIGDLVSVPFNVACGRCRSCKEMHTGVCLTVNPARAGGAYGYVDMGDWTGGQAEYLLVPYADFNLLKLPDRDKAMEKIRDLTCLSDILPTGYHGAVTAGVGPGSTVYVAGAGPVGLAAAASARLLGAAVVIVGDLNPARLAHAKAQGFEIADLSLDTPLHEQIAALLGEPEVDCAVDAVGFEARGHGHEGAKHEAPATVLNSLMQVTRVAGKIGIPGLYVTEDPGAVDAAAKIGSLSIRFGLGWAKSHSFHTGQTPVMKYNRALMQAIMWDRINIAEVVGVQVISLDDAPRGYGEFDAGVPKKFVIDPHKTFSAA

Row | SMILES | IC50 [µM]
18 | Oc1ccc(NCc2ccccc2OCc2ccccc2F)cc1 [SID 17385881] | > 57
19 | CC1(OC(=O)CCc2ccccc2)C(=O)C=C2C=C(c3ccc(C#N)cc3)N(C3CC3)C=C2C1=O (centres unmarked) [SID 26725552] | > 57

Same assay, conditions: IC50 values in μM, FDH, Figure 2; 0.025 U/mL FDH, 10 µM formaldehyde

Row | SMILES | IC50 [µM]
20 | O=C(Cc1ccccc1)N1CCN(Cc2ccccn2)CC1 [SID 4263376] | > 57

Same assay, conditions: Table S1; FDH counterscreen

Row | SMILES | qHTS Data: jmjd2e fdh CurveClass
21 | O=C(O)C(=O)O.O=C(c1ccccc1)N1CCN(CC2CC=CCC2)CC1 (centres unmarked) [compound 844960] | Inconclusive
22 | Cc1ccc(NC2=CC(=O)CC(C)(C)C2)c(N)c1 [compound 849268] | Inactive
23 | CC1=C(C(N)=O)C(c2ccc3c(c2)OCO3)n2nc(-c3cccc(C)c3)nc2N1 (centres unmarked) [compound 4245376] | Inactive
24 | Cc1nc(NC(=O)c2oc3ccccc3c2C)sc1C(=O)N(C)C [compound 4262050] | Poor quality curve
25 | O=C(Cc1ccccc1)N1CCN(Cc2ccccn2)CC1 [compound 4263376] | Inactive
26 | CC(C)NC[C@H](O)c1ccc(O)c(O)c1 [compound 11112573] | Inactive
27 | O=C(NNC(=O)c1ccc(O)cc1O)c1ccc(Cl)cc1 [compound 17414133] | Inactive
28 | Cc1ccc(SCCCCN2CCNCC2)cc1.O=C(O)C(=O)O [compound 17504558] | Inactive
29 | COc1cc(CNCCN2CCOCC2)ccc1OCc1c(Cl)cccc1Cl.Cl [compound 17505294] | Inactive
30 | O=c1cc(O)c2sc(Nc3ccc(F)cc3)nc2[nH]1 [compound 17505973] | Inactive
31 | FC(F)(F)c1ccccc1CN1CCN(C2CCCCCC2)CC1.O=C(O)C(=O)O [compound 22403162] | Inactive
32 | C/C(Cn1nnc([N+](=O)[O-])n1)=N\NC(=O)c1ccc(O)cc1O [compound 22414653] | Inactive
33 | CCC(=O)c1ccccc1OCCN1CCN(Cc2ccccc2)CC1.O=C(O)C(=O)O [compound 24782649] | Inactive
34 | Clc1ccc(SCCN2CCNCC2)cc1.O=C(O)C(=O)O [compound 24783981] | Inactive
35 | CCNc1nc(C(=O)O)nc(N2CCOCC2)n1 [compound 24789924] | Inactive
36 | O=C(CN1CCN(c2ncccn2)CC1)N1CCCC1.O=C(O)C(=O)O [compound 24790164] | Inactive
37 | O=C(CN1CCCCCC1)NCC1CCCO1.O=C(O)C(=O)O (centres unmarked) [compound 24790169] | Inactive

Row | SMILES | qHTS Data: jmjd2e fdh CurveClass
38 | Cc1cccc(NCc2ccc(O)c3ncccc23)c1 [compound 24790252] | Inactive
39 | S=c1nc(C2COc3ccccc3O2)[nH][nH]1 (centres unmarked) [compound 24801312] | -1.3
40 | CC1CCN(CC(=O)NCCc2ccc(F)cc2)CC1.O=C(O)C(=O)O [compound 24804760] | Poor quality curve
41 | O=C(O)C(=O)O.S=C(NCC1CCCO1)N1CCN(Cc2ccccc2)CC1 (centres unmarked) [compound 24807070] | Inactive
42 | COc1cccc(CN2CCN(C(=O)c3ccc(-c4ccccc4)cc3)CC2)c1OC.O=C(O)C(=O)O [compound 24807835] | Inactive
43 | CN(C)c1cc(N/N=C/c2ccc(Cl)cc2)nc(N(C)C)n1 [compound 24813304] | Poor quality curve
44 | O=C(O)C(=O)O.c1cc(CN2CCN(C3CCCCCC3)CC2)ccn1 [compound 24817627] | Inactive
45 | O=C(Nc1ccccc1C(F)(F)F)c1ncn[nH]1 [compound 24822488] | Poor quality curve
46 | O=C(CN1CCN(Cc2ccccc2)CC1)NC(c1ccccc1)c1ccccc1.O=C(O)C(=O)O [compound 24822653] | Inactive
47 | CC(CCc1ccccc1)NC(=O)CN1CCN(c2ccc(O)cc2)CC1 (centres unmarked) [compound 24833440] | Inactive
48 | CN(C)CCCNCC(=O)Nc1ccc(Cl)cc1C(=O)c1ccccc1.O=C(O)C(=O)O [compound 24839839] | Inactive
49 | COc1cc(C2C3=C(CCCC3=O)Nc3c2c(C)nn3-c2cccc(C)c2)cc(OC)c1O (centres unmarked) [compound 26724424] | Inactive
50 | CC1(OC(=O)C2CCCC2)C(=O)C=C2C=C(c3ccsc3)N(CCc3ccccn3)C=C2C1=O (centres unmarked) [compound 26725362] | Inactive
51 | COC(=O)CCC(=O)OC1(C)C(=O)C=C2C=C(C3CC3)N(CCc3ccccn3)C=C2C1=O (centres unmarked) [compound 26725368] | Inactive
52 | COCCN1C=C2C(=O)C(C)(OC(=O)CCc3ccccc3)C(=O)C=C2C=C1c1ccc(C#N)cc1 (centres unmarked) [compound 26725518] | Poor quality curve
53 | CC1(OC(=O)CCc2ccccc2)C(=O)C=C2C=C(c3ccc(C#N)cc3)N(C3CC3)C=C2C1=O (centres unmarked) [compound 26725552] | Inactive
54 | Cc1noc(C)c1C(=O)NNc1ccc(C(C)C)cc1 [compound 26728365] | Inactive

Same assay, conditions: Table S1; FDH counterscreen; unit not in table, from Figure 2; read-out: qHTS Data: jmjd2e fdh IC50

Row | SMILES | IC50 [µM]
55 | O=C(O)C(=O)O.O=C(c1ccccc1)N1CCN(CC2CC=CCC2)CC1 (centres unmarked) [compound 844960] | 5.01
56 | O=C(CC1Sc2ncnn2C1=O)Nc1ccccc1 (centres unmarked) [compound 14735867] | 0.28
57 | Fc1ccc(/C=C2\CCCC3=C2Nc2ncnn2C3c2ccc(F)cc2)cc1 (centres unmarked) [compound 14745056] | 10
58 | CCOc1ccc2ccccc2c1/C=N/NC(=O)CNC(=O)C(c1ccccc1)c1ccccc1 [compound 17512004] | 10
59 | S=c1nc(C2COc3ccccc3O2)[nH][nH]1 (centres unmarked) [compound 24801312] | 15.8
60 | Cc1cc(N(C)/N=C/c2ccccc2)nc(-c2ccccc2O)n1 [compound 24801833] | 39.8
61 | Cc1cccc(N2C(=O)CC(Sc3ncn[nH]3)C2=O)c1 (centres unmarked) [compound 24809940] | 0.28
62 | CN(C)c1cc(N/N=C/c2ccc(Cl)cc2)nc(N(C)C)n1 [compound 24813304] | 14.1
63 | O=C(Nc1ccccc1C(F)(F)F)c1ncn[nH]1 [compound 24822488] | 22.4
64 | COc1ccc(Cl)cc1CSc1ncn[nH]1 [compound 26662682] | 0.32
65 | CCCCn1c(=O)[nH]c2nc3cc(NC(C)=O)ccc3nc2c1=O [compound 26671554] | 11.2
